The results in this text go back to patent publication US12479822B2, “AHR agonists” (Eli Lilly and Company, priority 2021, dated 2025).

Molecules are shown by their SMILES.

The target of the data set is T1, Human AHR (Homo sapiens, UniProt P35869).
T1 construct: expressed in transfected cells
T1 sequence (P35869 11-848): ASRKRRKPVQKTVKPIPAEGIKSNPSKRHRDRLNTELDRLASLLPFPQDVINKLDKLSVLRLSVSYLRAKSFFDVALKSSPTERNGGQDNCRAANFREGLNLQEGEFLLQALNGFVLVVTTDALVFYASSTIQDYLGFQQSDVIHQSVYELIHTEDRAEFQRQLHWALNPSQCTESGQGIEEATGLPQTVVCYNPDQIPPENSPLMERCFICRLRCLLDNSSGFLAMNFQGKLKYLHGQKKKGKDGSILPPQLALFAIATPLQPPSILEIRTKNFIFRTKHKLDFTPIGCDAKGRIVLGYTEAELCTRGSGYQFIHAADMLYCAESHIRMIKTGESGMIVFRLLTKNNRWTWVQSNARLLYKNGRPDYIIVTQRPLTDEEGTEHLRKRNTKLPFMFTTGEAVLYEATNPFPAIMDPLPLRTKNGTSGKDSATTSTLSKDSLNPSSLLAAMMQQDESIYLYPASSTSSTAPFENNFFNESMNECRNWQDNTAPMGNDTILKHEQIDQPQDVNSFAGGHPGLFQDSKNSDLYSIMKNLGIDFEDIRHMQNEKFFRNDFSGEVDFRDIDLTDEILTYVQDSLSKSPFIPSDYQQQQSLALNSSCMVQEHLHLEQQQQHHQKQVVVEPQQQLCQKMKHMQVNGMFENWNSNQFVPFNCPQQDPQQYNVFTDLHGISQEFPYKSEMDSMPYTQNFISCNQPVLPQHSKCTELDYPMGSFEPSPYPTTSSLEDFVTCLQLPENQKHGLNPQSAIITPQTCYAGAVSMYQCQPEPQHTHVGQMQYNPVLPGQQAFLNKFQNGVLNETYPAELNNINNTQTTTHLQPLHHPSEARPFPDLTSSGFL
Description: hAHR Nuclear Translocation Assay. Type of data set: cell-based. The settings on record: Jump-In T-REx HEK293 cells expressing AhR-EGFP chimera; 45 minutes incubation; ratio of EGFP fluorescent intensity in nuclear over cytosol; 20-point curve. Here is the method:
Stable cell lines were established using Jump-In™ T-REx™ HEK293 Retargeting Kit (Life Technologies). Human AHR cDNA was cloned into the pJTI R4 CMV-TO EGFP vector. The EGFP was cloned to the C-terminal of AHR to form AhR-EGFP chimera. The pJTI R4 CMV-TO AhR-EGFP vector was transfected using FuGENE® HD into Jump-In™ T-REx™ HEK293 cells. Transfected cells were selected using 2.5 mg/ml G418 for 10 to 14 days, then expanded, harvested, and suspended in freeze media (FBS with 8% DMSO) at 2×10^7 cells/ml, and aliquots were stored in liquid nitrogen. […] On the assay date, compound was serially diluted (1:2) into 384-well nunc plates with DMSO using acoustic dispensing (ECHO). The dose response was a 20-point curve. Compound was resuspended in 40 μl of DMEM plus 0.1% BSA. The culture media was damped and 25 μl of DMEM plus 0.1% BSA was added, then 25 μl of compound in DMEM plus 0.1% BSA was added into cell plates. Cells were incubated with compounds at 37° C. and 5% CO2 for 45 minutes. The final DMSO concentration was 0.2%. The media was damped after 45 minutes of incubation. The cells were fixed with 40 μl of cold methanol (−20° C.) for 20 minutes. The methanol was damped and 50 μl of DPBS containing 1 μg/ml Hochst was added into the cell plates. The intensity of EGFP was quantitated by using OPERA PHENIX® or Operetta™ high content image system (Perkin Elmer) with 20× Water Objective and five field per well. The ratio of EGFP fluorescent intensity in nuclear over cytosol was analyzed using a 4-parameter nonlinear logistic equation to determine the potency of AHR agonists.
As for `CN(C)CCNc1cccc2c1cc(C(=O)Nc1ccccc1)c(=O)n2C` [Example 48, 5-[2-(Dimethylamino)ethylamino]-1-methyl-2-oxo-N-phenyl-quinoline-3-carboxamide], the EC50 is 21.3 nM.
The same measure for `CN(C)CCNc1cccc2cc(C(=O)Nc3ccccc3)c(=O)n(C)c12` [Example 50, 8-[2-(Dimethylamino)ethylamino]-1-methyl-2-oxo-N-phenyl-quinoline-3-carboxamide]: 26.8 nM; for `CN(C)CCNc1cccc2c1cc(C(=O)Nc1ncc(C(F)(F)F)cn1)c(=O)n2C` [Example 54, 5-[2-(Dimethylamino)ethylamino]-1-methyl-2-oxo-N-[5-(trifluoromethyl)pyrimidin-2-yl]quinoline-3-carboxamide]: 18.3 nM.
Consider `Cn1c(=O)c(C(=O)Nc2ccccc2)cc2ccc(Br)cc21` [Example 40, 7-Bromo-1-methyl-2-oxo-N-phenyl-quinoline-3-carboxamide], for which the EC50 was determined as 0.831 nM.
Under `Cn1c(=O)c(C(=O)Nc2ccccn2)cc2cc(OCCO)ccc21` [Example 59, 6-(2-Hydroxyethoxy)-1-methyl-2-oxo-N-(2-pyridyl)quinoline-3-carboxamide] stands 19.2 nM; under `O=C(Nc1ccc(F)cn1)c1cc2cccc3c2n(c1=O)CC3` [Example 37, N-(5-Fluoro-2-pyridyl)-11-oxo-1-azatricyclo[6.3.1.04,12]dodeca-4(12),5,7,9-tetraene-10-carboxamide], 0.807 nM; under `COc1cccc(NC(=O)c2cc3ccccc3n(C)c2=O)c1` [Example 8, N-(3-Methoxyphenyl)-1-methyl-2-oxo-quinoline-3-carboxamide], 1.12 nM.
The same measure for `Cn1c(=O)c(C(=O)Nc2ccc(F)cc2)cc2cccnc21` [Example 18, N-(4-Fluorophenyl)-1-methyl-2-oxo-1,8-naphthyridine-3-carboxamide]: 0.468 nM.
The same measure for `Cn1c(=O)c(C(=O)Nc2cccnc2)cc2ccccc21` [Example 13, 1-Methyl-2-oxo-N-(3-pyridyl)quinoline-3-carboxamide]: 3.72 nM; for `Cn1c(=O)c(C(=O)Nc2ccc(F)cn2)cc2c(NCCO)cccc21` [Example 67, N-(5-Fluoro-2-pyridyl)-5-(2-hydroxyethylamino)-1-methyl-2-oxo-quinoline-3-carboxamide]: 1.92 nM.
`Cc1ccc(NC(=O)c2cc3cccc4c3n(c2=O)CC4)nc1` [Example 41, N-(5-Methyl-2-pyridyl)-11-oxo-1-azatricyclo[6.3.1.04, 12]dodeca-4(12),5,7,9-tetraene-10-carboxamide]: the EC50 came out at 6.24 nM.
Under `Cc1cccc(NC(=O)c2cc3ccccc3n(C)c2=O)n1` [Example 19, 1-Methyl-N-(6-methyl-2-pyridyl)-2-oxo-quinoline-3-carboxamide] stands 25.8 nM; under `CN(C)CCNc1ccc2c(c1)cc(C(=O)Nc1ccccn1)c(=O)n2C` [Example 55, 6-[2-(Dimethylamino)ethylamino]-1-methyl-2-oxo-N-(2-pyridyl)quinoline-3-carboxamide], 40.6 nM.
Regarding `O=C(Nc1ncccn1)c1cc2cccc3c2n(c1=O)CC3` [Example 38, 11-Oxo-N-pyrimidin-2-yl-1-azatricyclo[6.3.1.04,12]dodeca-4(12),5,7,9-tetraene-10-carboxamide], the EC50 came out at 6.34 nM.
Under `Cn1c(=O)c(C(=O)NC23CC(C2)C3)cc2ccccc21` [Example 32, N-(3-Bicyclo[1.1.1]pentanyl)-1-methyl-2-oxo-quinoline-3-carboxamide] stands 16.4 nM.
The same measure for `COc1ccc(NC(=O)c2cc3ccccc3n(C)c2=O)cc1OC` [Example 3, N-(3,4-Dimethoxyphenyl)-1-methyl-2-oxo-quinoline-3-carboxamide]: 0.837 nM; for `Cn1c(=O)c(C(=O)Nc2ccccn2)cc2ccccc21` [Example 9, 1-Methyl-2-oxo-N-(2-pyridyl)quinoline-3-carboxamide]: 0.613 nM.
The same measure for `COc1ccc(NC(=O)c2cc3ccc(NCCN(C)C)cc3n(C)c2=O)cc1` [Example 56, 7-[2-(Dimethylamino)ethylamino]-N-(4-methoxyphenyl)-1-methyl-2-oxo-quinoline-3-carboxamide]: 79.2 nM; for `Cc1ccnc(NC(=O)c2cc3ccccc3n(C)c2=O)c1` [Example 7, 1-Methyl-N-(4-methyl-2-pyridyl)-2-oxo-quinoline-3-carboxamide]: 6.13 nM; for `CN(C)CCNc1ccc2c(c1)cc(C(=O)Nc1ccc(F)cn1)c(=O)n2C` [Example 52, 6-[2-(Dimethylamino)ethylamino]-N-(5-fluoro-2-pyridyl)-1-methyl-2-oxo-quinoline-3-carboxamide]: 20.3 nM.
Turning to `Cn1c(=O)c(C(=O)Nc2ncc(F)s2)cc2c(NCCO)cccc21` [Example 64, N-(5-Fluorothiazol-2-yl)-5-(2-hydroxyethylamino)-1-methyl-2-oxo-quinoline-3-carboxamide], the EC50 came to 52.9 nM.
The same measure for `Cn1c(=O)c(C(=O)Nc2ccc(F)cc2)cc2ccccc21` [Example 4, N-(4-Fluorophenyl)-1-methyl-2-oxo-quinoline-3-carboxamide]: 0.214 nM; for `COc1ccc(NC(=O)c2cc3ccc(C4CC4)cc3n(C)c2=O)cc1` [Example 45, 7-Cyclopropyl-N-(4-methoxyphenyl)-1-methyl-2-oxo-quinoline-3-carboxamide]: 2.14 nM.
The same measure for `Cc1ccc(NC(=O)c2cc3ccccc3n(C)c2=O)nc1` [Example 20, 1-Methyl-N-(5-methyl-2-pyridyl)-2-oxo-quinoline-3-carboxamide]: 0.675 nM; for `Cn1c(=O)c(C(=O)Nc2ccccc2)cc2ccc(OCCO)cc21` [Example 61, 7-(2-Hydroxyethoxy)-1-methyl-2-oxo-N-phenyl-quinoline-3-carboxamide]: 16.1 nM; for `Cn1c(=O)c(C(=O)Nc2ccc(F)cn2)cc2ccccc21` [Example 22, N-(5-Fluoro-2-pyridyl)-1-methyl-2-oxo-quinoline-3-carboxamide]: 0.389 nM.
Under `COc1ccc(NC(=O)c2cc3cccnc3n(C)c2=O)cc1` [Example 35, N-(4-Methoxyphenyl)-1-methyl-2-oxo-1,8-naphthyridine-3-carboxamide] stands 2.29 nM; under `CN(C)CCNc1ccc2c(c1)cc(C(=O)Nc1ccccc1)c(=O)n2C` [Example 49, 6-[2-(Dimethylamino)ethylamino]-1-methyl-2-oxo-N-phenyl-quinoline-3-carboxamide], 9 nM.
With `Cn1c(=O)c(C(=O)Nc2ncc(C(F)(F)F)cn2)cc2c(NCCO)cccc21` [Example 69, 5-(2-Hydroxyethylamino)-1-methyl-2-oxo-N-[5-(trifluoromethyl)pyrimidin-2-yl]quinoline-3-carboxamide], the EC50 amounted to 6.66 nM.
The same measure for `Cn1c(=O)c(C(=O)Nc2ccccc2)cc2c(OCCO)cccc21` [Example 60, 5-(2-Hydroxyethoxy)-1-methyl-2-oxo-N-phenyl-quinoline-3-carboxamide]: 1.4 nM; for `Cn1c(=O)c(C(=O)Nc2cccc(F)c2)cc2ccccc21` [Example 23, N-(3-Fluorophenyl)-1-methyl-2-oxo-quinoline-3-carboxamide]: 0.601 nM.
Regarding `COc1ccc(NC(=O)c2cc3cccc4c3n(c2=O)CC4)cc1` [Example 26, N-(4-Methoxyphenyl)-11-oxo-1-azatricyclo[6.3.1.04,12]dodeca-4(12),5,7,9-tetraene-10-carboxamide], the EC50 came to 0.701 nM.
In the case of `Cn1c(=O)c(C(=O)Nc2ccc(F)cn2)cc2cc(NCCO)ccc21` [Example 66, N-(5-Fluoro-2-pyridyl)-6-(2-hydroxyethylamino)-1-methyl-2-oxo-quinoline-3-carboxamide], the EC50 amounted to 53.9 nM.
